Assay results published in ChEMBL document CHEMBL4680196, “Structurally novel PI3Kδ/γ dual inhibitors characterized by a seven-membered spirocyclic spacer: The SARs investigation and PK evaluation” (Eur J Med Chem, 2020).

How the values were obtained:
SU-DHL-6 [1] = assay: Antiproliferative activity against human SU-DHL-6 cells assessed as reduction in cell viability measured after 72 hrs by MTT assay; type: functional
[2] = target: PI3-kinase p110-alpha/p85-alpha (Homo sapiens, UniProt P42336)
Chain of PI3-kinase p110-alpha/p85-alpha (P27986 whole entry, canonical isoform): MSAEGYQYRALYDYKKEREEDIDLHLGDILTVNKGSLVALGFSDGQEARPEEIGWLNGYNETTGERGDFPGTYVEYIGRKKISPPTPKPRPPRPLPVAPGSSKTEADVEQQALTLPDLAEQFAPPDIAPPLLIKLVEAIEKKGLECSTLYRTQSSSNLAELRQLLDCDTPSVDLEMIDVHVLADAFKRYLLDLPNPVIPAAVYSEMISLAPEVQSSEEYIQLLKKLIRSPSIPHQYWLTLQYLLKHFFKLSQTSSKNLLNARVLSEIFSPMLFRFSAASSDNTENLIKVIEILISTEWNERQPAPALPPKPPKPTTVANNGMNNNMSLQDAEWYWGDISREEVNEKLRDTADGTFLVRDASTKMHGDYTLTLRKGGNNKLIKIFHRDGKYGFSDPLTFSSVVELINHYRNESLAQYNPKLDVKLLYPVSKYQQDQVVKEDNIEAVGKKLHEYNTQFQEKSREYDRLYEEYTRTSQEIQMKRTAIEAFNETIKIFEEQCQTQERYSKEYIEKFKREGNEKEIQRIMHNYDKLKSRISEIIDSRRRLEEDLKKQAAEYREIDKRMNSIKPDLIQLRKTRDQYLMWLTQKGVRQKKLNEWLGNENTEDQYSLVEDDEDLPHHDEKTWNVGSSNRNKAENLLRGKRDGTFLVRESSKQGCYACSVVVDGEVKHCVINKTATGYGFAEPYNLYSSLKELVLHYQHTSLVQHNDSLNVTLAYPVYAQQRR
Chain of PI3-kinase p110-alpha/p85-alpha (P42336 whole entry, canonical isoform): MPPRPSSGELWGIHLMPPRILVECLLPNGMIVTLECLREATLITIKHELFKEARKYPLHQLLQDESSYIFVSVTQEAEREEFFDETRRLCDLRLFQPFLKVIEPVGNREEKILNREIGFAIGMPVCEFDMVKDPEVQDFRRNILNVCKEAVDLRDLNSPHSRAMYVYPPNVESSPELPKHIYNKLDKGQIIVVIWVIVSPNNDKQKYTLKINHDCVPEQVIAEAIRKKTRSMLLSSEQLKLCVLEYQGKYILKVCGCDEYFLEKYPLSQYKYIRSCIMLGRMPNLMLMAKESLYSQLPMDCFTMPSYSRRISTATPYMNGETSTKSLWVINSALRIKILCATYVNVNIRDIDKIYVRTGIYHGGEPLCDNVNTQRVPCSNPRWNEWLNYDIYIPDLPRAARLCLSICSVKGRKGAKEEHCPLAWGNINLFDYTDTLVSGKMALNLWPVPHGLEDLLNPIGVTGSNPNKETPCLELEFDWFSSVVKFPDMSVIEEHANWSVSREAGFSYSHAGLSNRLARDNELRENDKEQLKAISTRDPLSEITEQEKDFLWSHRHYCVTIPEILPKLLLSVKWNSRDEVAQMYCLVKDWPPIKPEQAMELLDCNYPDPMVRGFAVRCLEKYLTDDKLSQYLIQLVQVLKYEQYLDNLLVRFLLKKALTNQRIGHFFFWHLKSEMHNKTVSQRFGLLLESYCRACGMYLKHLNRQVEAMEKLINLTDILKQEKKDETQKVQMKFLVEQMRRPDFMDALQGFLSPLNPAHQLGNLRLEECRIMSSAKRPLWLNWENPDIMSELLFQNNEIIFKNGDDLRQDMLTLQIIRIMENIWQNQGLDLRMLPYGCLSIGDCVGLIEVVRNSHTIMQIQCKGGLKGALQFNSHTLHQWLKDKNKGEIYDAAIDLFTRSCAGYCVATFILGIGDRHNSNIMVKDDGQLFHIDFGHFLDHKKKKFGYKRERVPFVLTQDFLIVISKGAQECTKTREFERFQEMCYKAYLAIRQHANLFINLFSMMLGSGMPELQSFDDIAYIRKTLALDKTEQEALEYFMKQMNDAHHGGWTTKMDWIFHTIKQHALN

[3] = target: Phosphatidylinositol 3-kinase regulatory subunit beta/Phosphatidylinositol 4,5-bisphosphate 3-kinase catalytic subunit beta isoform (Homo sapiens, UniProt P42338)
Chain of Phosphatidylinositol 3-kinase regulatory subunit beta/Phosphatidylinositol 4,5-bisphosphate 3-kinase catalytic subunit beta isoform (P42338 whole entry, canonical isoform): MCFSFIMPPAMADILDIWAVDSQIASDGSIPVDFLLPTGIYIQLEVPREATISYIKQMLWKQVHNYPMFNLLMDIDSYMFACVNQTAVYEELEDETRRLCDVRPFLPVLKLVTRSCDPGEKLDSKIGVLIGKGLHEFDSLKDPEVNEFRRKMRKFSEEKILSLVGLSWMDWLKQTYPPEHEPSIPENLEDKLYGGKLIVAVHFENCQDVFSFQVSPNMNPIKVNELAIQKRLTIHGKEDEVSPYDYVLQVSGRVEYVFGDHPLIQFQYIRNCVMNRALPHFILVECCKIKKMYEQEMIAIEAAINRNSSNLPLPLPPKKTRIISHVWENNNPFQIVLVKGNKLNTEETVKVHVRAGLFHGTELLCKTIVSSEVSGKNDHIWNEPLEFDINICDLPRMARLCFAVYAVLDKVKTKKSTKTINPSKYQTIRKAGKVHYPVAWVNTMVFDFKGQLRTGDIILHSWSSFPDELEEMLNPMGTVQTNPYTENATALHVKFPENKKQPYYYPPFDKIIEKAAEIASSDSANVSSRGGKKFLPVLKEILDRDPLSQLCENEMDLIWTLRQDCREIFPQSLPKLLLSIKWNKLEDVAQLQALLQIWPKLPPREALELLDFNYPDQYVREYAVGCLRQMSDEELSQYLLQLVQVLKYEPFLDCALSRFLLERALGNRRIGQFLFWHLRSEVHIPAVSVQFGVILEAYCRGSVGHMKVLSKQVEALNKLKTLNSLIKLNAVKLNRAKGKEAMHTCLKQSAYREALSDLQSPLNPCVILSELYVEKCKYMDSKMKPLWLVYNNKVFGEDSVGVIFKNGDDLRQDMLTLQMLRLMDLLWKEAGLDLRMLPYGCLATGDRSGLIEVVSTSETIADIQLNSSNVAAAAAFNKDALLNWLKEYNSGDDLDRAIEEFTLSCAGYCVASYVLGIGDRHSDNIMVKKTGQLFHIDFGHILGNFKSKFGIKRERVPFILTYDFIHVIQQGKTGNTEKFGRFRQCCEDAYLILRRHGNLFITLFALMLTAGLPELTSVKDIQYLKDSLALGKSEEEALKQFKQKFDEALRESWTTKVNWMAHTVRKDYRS
Chain of Phosphatidylinositol 3-kinase regulatory subunit beta/Phosphatidylinositol 4,5-bisphosphate 3-kinase catalytic subunit beta isoform (O00459 whole entry, further chain, canonical isoform): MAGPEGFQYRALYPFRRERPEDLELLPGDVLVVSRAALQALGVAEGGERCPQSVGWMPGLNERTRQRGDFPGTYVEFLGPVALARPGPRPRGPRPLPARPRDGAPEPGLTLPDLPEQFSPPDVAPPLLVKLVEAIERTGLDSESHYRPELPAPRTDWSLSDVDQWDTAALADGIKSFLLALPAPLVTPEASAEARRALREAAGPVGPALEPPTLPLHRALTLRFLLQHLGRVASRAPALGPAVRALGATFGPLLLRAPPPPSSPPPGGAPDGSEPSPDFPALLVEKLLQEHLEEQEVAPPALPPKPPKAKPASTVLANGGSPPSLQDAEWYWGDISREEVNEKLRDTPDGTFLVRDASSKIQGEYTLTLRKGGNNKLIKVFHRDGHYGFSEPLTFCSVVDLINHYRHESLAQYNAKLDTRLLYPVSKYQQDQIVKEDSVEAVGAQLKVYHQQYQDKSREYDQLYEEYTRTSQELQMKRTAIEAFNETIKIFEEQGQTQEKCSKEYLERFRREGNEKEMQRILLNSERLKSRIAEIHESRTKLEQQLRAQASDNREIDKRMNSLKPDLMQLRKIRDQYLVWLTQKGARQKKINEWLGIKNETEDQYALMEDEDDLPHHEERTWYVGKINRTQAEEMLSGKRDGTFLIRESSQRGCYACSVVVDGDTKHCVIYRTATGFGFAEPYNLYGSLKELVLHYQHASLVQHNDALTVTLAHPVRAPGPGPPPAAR

[4] = target: Phosphatidylinositol 4,5-bisphosphate 3-kinase catalytic subunit gamma isoform (Homo sapiens, UniProt P48736)
Homo sapiens [5] = species: Homo sapiens
Homo sapiens [6] = species: Homo sapiens; remark: listed apart in the source
Homo sapiens [7] = species: Homo sapiens; remark: listed apart in the source
SU-DHL-6 [8] = assay: Inhibition of PI3K in human SU-DHL-6 cells assessed as reduction in AKT phosphorylation at Ser473 residues after 2 hrs by Western blot analysis; type: cell-based
SU-DHL-6 [9] = assay: Inhibition of PI3K in human SU-DHL-6 cells assessed as reduction in S6K1 phosphorylation at Thr389 residues after 2 hrs by Western blot analysis; type: cell-based
[10] = Elimination half life in Sprague-Dawley rat at 5 mg/kg, iv by UHPLC-LC/MS analysis; type: ADME, organism-based; details: in vivo, read-out: beta t1/2 (converted)
[11] = AUC (0 to t) in Sprague-Dawley rat at 5 mg/kg, iv by UHPLC-LC/MS analysis; type: ADME, organism-based; parameters: dose 5 mg/kg; details: in vivo
[12] = Volume of distribution at steady state in Sprague-Dawley rat at 5 mg/kg, iv or po by UHPLC-LC/MS analysis; type: ADME, organism-based; details: in vivo, read-out: Vdss
[13] = Clearance in Sprague-Dawley rat at 5 mg/kg, […] by UHPLC-LC/MS analysis; type: ADME, organism-based; details: in vivo
[14] = Oral bioavailability in Sprague-Dawley rat at 5 mg/kg by UHPLC-LC/MS analysis; type: ADME, organism-based; details: in vivo
[15] = Elimination half life in Sprague-Dawley rat at 5 mg/kg, po by UHPLC-LC/MS analysis; type: ADME, organism-based; details: in vivo, read-out: beta t1/2 (converted)
[16] = AUC (0 to t) in Sprague-Dawley rat at 5 mg/kg, po by UHPLC-LC/MS analysis; type: ADME, organism-based; parameters: dose 5 mg/kg; details: in vivo
[17] = target: PI3-kinase p110-delta/p85-alpha (Homo sapiens, UniProt O00329)
Chain of PI3-kinase p110-delta/p85-alpha (P27986 whole entry): as the sequence (P27986 whole entry, canonical isoform) above
Chain of PI3-kinase p110-delta/p85-alpha (O00329 whole entry): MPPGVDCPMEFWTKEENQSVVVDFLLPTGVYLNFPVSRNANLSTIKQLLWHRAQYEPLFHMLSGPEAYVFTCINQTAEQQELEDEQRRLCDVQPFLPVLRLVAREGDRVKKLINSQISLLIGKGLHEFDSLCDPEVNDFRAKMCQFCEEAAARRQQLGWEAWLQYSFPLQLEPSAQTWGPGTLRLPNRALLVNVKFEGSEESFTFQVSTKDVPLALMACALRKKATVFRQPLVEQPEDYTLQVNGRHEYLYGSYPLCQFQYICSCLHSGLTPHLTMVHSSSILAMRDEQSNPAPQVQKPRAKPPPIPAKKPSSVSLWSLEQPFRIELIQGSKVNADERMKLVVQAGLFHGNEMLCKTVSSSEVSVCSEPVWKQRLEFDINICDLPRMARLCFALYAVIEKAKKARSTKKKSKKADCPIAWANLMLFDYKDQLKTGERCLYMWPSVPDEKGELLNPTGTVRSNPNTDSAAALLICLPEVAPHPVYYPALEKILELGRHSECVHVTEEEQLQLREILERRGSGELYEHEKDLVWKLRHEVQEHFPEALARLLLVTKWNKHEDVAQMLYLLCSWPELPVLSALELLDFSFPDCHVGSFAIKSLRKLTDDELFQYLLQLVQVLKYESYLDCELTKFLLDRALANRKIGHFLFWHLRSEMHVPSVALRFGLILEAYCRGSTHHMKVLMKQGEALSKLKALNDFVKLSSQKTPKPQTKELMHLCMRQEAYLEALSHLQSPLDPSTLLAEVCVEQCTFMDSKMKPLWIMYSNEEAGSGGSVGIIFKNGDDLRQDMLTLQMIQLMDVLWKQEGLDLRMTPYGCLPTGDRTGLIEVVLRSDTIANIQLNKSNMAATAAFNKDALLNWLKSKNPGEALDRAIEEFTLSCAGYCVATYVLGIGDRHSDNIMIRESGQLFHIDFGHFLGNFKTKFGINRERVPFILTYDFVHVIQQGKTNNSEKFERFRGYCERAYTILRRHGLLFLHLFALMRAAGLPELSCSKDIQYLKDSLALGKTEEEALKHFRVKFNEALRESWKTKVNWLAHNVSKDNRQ

Structure (SMILES) | GI50 (SU-DHL-6 [1]) [nM] | IC50 [17] [nM] | other results
CC[C@H](Nc1ncnc2[nH]cnc12)c1nc2cccc(F)c2c(=O)n1-c1ccccc1 [IDELALISIB] | 34 |  | 
N#Cc1c(N)nc(N)nc1N1CC2(CC2)C[C@H]1c1nc2cccc(Cl)c2c(=O)n1-c1ccccc1 | 33 | 1 | IC50 [2]: 221 nM; IC50 [3]: 174 nM; IC50 [4]: 4.3 nM; Ratio IC50 (Homo sapiens [5]): 221; Ratio IC50 (Homo sapiens [6]): 174; Ratio IC50 (Homo sapiens [7]): 4; inhibition (SU-DHL-6 [8]): Dose-dependent effect; inhibition (SU-DHL-6 [9]): Dose-dependent effect; half-life [10]: 3 h; AUC(0-t) [11]: 5580 ng·h/mL; Vd [12]: 3.9 L/kg; CL/F [13]: 15 mL/min/kg; bioavailability [14]: 87.5%; half-life [15]: 14.3 h; AUC(0-t) [16]: 4880 ng·h/mL
N#Cc1c(N)ncnc1N1CC2(CC2)C[C@H]1c1nc2ccc(F)cc2c(=O)n1-c1ccccc1 | 945 | 9.6 | 
N#Cc1c(N)ncnc1N1CC2(CC2)C[C@H]1c1nc2cccc(F)c2c(=O)n1-c1ccccc1 | 867 | 15 | 
N#Cc1c(N)nc(N)nc1N1CC2(CC2)C[C@H]1c1nc2cccc(F)c2c(=O)n1-c1ccccc1 | 53 | 5.4 | 
O=c1c2c(F)cccc2nc([C@@H]2CC3(CC3)CN2c2ncnc3[nH]cnc23)n1C1CCCC1 |  | 396 | 
N#Cc1c(N)ncnc1N1CC2(CC2)C[C@H]1c1nc2cccc(Cl)c2c(=O)n1-c1ccccc1 | 3420 | 3.7 | 
O=c1c2cc(F)ccc2nc([C@@H]2CC3(CC3)CN2c2ncnc3[nH]cnc23)n1-c1ccccc1 | 937 | 48 | 
O=c1c2c(Cl)cccc2nc([C@@H]2CC3(CC3)CN2c2nc(Cl)nc3[nH]cnc23)n1-c1ccccc1 |  | 406 | 
Cc1nc(N)nc(N2CC3(CC3)C[C@H]2c2nc3cccc(F)c3c(=O)n2-c2ccccc2)c1C#N | 1040 | 9.4 | 
O=c1c2c(F)cccc2nc([C@@H]2CC3(CC3)CN2c2ncnc3[nH]cnc23)n1Cc1ccccc1 |  | 813 | 
O=c1c2c(Cl)cccc2nc([C@@H]2CC3(CC3)CN2c2ncnc3[nH]cnc23)n1-c1ccccc1 | 601 | 13 | IC50 [2]: > 5000 nM; IC50 [3]: 2640 nM; IC50 [4]: 113 nM; Ratio IC50 (Homo sapiens [5]): > 385; Ratio IC50 (Homo sapiens [6]): 203; Ratio IC50 (Homo sapiens [7]): 9
O=c1c2c(Cl)cccc2nc([C@@H]2CC3(CC3)CN2c2nc(F)nc3[nH]cnc23)n1-c1ccccc1 | 2810 | 38 | 
O=c1c2c(F)cccc2nc([C@@H]2CC3(CC3)CN2c2ncnc3[nH]cnc23)n1C1CCCCC1 |  | 444 | 
Cc1nc(N)nc(N2CC3(CC3)C[C@H]2c2nc3cccc(Cl)c3c(=O)n2-c2ccccc2)c1C#N | 716 | 9.6 | 
Cc1cccc2nc([C@@H]3CC4(CC4)CN3c3ncnc4[nH]cnc34)n(-c3ccccc3)c(=O)c12 | 107 | 16 | 
O=c1c2c(F)cccc2nc([C@@H]2CC3(CC3)CN2c2ncnc3[nH]cnc23)n1-c1ccccc1 | 813 | 43 | 
